Assay results: patent publication US9891239B2, “Modulators of pharmacokinetic properties of therapeutics” (Gilead Sciences, Inc., priority 2007, dated 2018)

Tested on: wild-type HIV-1 strain IIIB
Test: Anti-HIV-1 cell culture assay (EC50), XTT readout of cytopathic effect in MT2 cells
Type: cell-based
Conditions: Human immunodeficiency virus 1, IIIB, MT2, 120 h, read-out: protease inhibition activity represented by HIV EC50
Description: The assay is based on quantification of the HIV-1-associated cytopathic effect by a […] detection of the viability of virus-infected cells in the presence or absence of tested inhibitors. HIV-1-induced cell death was determined using a metabolic substrate 2,3-bis(2-methoxy-4-nitro-5-sulfophenyl)-2H-tetrazolium-5-carboxanilide (XTT) which is converted only by intact cells into a product with specific absorption characteristics as described by Weislow O S, Kiser R, Fine D L, Bader J, Shoemaker R H and Boyd M R, J. Natl. Cancer Inst. 81, 577 (1989) (herein incorporated by reference in its entirety for all purposes). […]
To determine the antiviral activity of the tested inhibitors, a substrate XTT solution (6 mL per assay plate) at a concentration of 2 mg/mL in a phosphate-buffered saline pH 7.4 was heated in water-bath for 5 min at 55° C. before 50 μl of N-methylphenazonium methasulfate (5 μg/mL) was added per 6 mL of XTT solution. […] Viability, as determined by the amount of XTT metabolites produced, was quantified spectrophotometrically by the absorbance at 450 nm (with subtraction of the background absorbance at 650 nm). […]

Question: With `CC(C)c1nc(CN(C)C(=O)N[C@@H](CCN2CCOCC2)C(=O)N[C@H](CC[C@H](Cc2ccccc2)NC(=O)OCc2cncs2)Cc2ccccc2)cs1` [Example S] as the compound, how does the EC50 read?
Answer: The EC50 was greater than 30 µM.
